# Source: PubChem BioAssay (NCI)
#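 Method: 48-hour compound exposure of cells in 96-well plates, five concentrations, linear interpolation of endpoints. The concentration for 50% growth inhibition is given as GI50. TGI: total growth inhibition.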
# Columns and labels:
# Assay in all cases: DTP human tumour cell line panel, 48 h
# [1] = system: SR leukemia
# [2] = system: MOLT-4 leukemia
# [3] = system: MALME-3M melanoma
# [4] = system: NCI-H23 lung
# [5] = system: LOX IMVI melanoma
# [6] = system: SF-295 CNS
# [7] = system: M14 melanoma
# [8] = system: COLO 205 colon
# [9] = system: NCI/ADR-RES ovarian
# [10] = system: DU-145 prostate
SMILES,TGI [1] [µM],TGI [2] [µM],TGI [3] [µM],TGI [4] [µM],TGI [5] [µM],TGI [6] [µM],TGI [7] [µM],TGI [8] [µM],GI50 [8] [µM],GI50 [9] [µM],TGI [9] [µM],GI50 [10] [µM],TGI [10] [µM],GI50 [2] [µM],GI50 [4] [µM],GI50 [5] [µM],GI50 [6] [µM],GI50 [7] [µM],GI50 [1] [µM],GI50 [3] [µM]
CCCCCCCCCCCCOC(=S)NC,34.6,32.1,39.6,40.9,27.4,43.9,37.1,,,,,,,,,,,,,
CC(=O)NNc1nc(C)c(C(/C=C/c2ccc(Cl)cc2)=N/NC(=S)NN)s1,> 100,> 100,> 100,> 100,> 100,> 100,> 100,> 100,,,,,,,,,,,,
COc1cc(CCC(=O)NS(=O)(=O)c2ccccc2)cc(OC)c1OC,> 100,> 100,> 100,> 100,> 100,> 100,> 100,> 100,,,,,,,,,,,,
ClC1=C(Cl)C(Cl)=C(Cl)C1=Cc1ccc(Cl)cc1Cl,,0.98,,1.14,0.384,3.08,0.635,2.25,0.486,0.276,0.926,0.718,3.52,0.3,0.281,0.184,0.733,0.234,,
C=C(CN(CCN1CCOCC1)CC(=C)c1ccc(C(=O)Nc2ccccc2N)cc1)c1ccc(C(=O)Nc2ccccc2N)cc1,> 50,,,9.11,6.47,19.9,> 50,20.2,8.21,1.31,4.92,6.88,15.7,,2.49,1.07,8.46,15.8,11.7,
CN(Cc1ccccc1)c1nc(=[N+](C)C)ss1,> 100,> 100,> 100,> 100,> 100,> 100,> 100,,,,,,,,,,,,,
COC(=O)C1=C2CO[C@@H]3C[C@H]4C(C)(C)CCC[C@]4(C)C(=CC1)[C@]23C,,30.5,68.5,> 100,> 100,37.6,> 100,71,28.2,,,44,> 100,5.48,29.8,36.4,14.9,32.6,,12.1
Cc1cccc(NC(=O)Cc2nc3ccccc3s2)c1C,,> 100,> 100,> 100,> 100,> 100,> 100,> 100,,,,,,,,,,,,
CCc1ccccc1NC(=O)C1=C(C)NC(C)=C(C(=O)Nc2ccccc2CC)C1c1ccc(NC(C)=O)cc1,,54.4,> 100,> 100,44.2,> 100,> 100,> 100,,,,,,,,,,,,
O/N=C1/C(=C/c2ccc(Cl)cc2)CCCC1C(NO)c1ccc(Cl)cc1 (centres undefined),,37.2,64.6,54,,36.4,33.8,42.3,,,,,,,,,,,,
CCCCCC/C=C/CCCCCCCc1cccc(O)c1C(=O)O,> 100,> 100,> 100,> 100,> 100,> 100,> 100,> 100,,,,,,,,,,,,
O=C(O)C1=C(Cl)c2ccccc2S1(=O)=O,,> 100,> 100,> 100,> 100,> 100,> 100,> 100,,,,,,,,,,,,
C/C(CC(=O)Nc1ccc(NC(=O)/C(C)=N/NS(=O)(=O)c2ccc(C)cc2)cc1)=N\NS(=O)(=O)c1ccc(C)cc1,,> 100,> 100,> 100,> 100,> 100,> 100,> 100,,,,,,,,,,,,
CC(=O)Oc1cc(OC(C)=O)c2cc3c(cc2c1OC(C)=O)C(=O)C1(CCCC1)C3=O,,15,33.6,34.1,33.5,29.9,32.1,33.9,,,,,,,,,,,,
O=C1C(Cl)=C(Nc2ccc3c(c2NC2=C(Cl)C(=O)c4ccccc4C2=O)C(=O)c2ccccc2C3=O)C(=O)c2ccccc21,> 100,17.5,1.72,4.1,10.4,3.2,2.29,3.72,1.69,,,1.57,2.97,3.25,1.08,0.872,1.38,1.02,1.42,0.505
N#CNc1nc(C(=O)Nc2ccc(Cl)cc2)cc(-c2ccccc2)n1,,> 100,> 100,> 100,,> 100,> 100,,,,,,,,,,,,,
CCN1CCC(O)(c2ccc(Cl)c(Cl)c2)C(C(=O)c2ccc(Cl)c(Cl)c2)C1 (centres undefined),,32.4,33.6,36.3,34,31.9,30.9,31.7,,,,,,,,,,,,
CC(=O)[CH-]C(=O)c1ccccc1.CC(=O)[CH-]C(=O)c1ccccc1.CC[O-].O=C1C=C([O-])C(=O)c2ccccc21.[Ti+4],,> 100,> 100,> 100,> 100,> 100,> 100,> 100,26.9,,,,,58.3,10.8,20,37.9,18,,34.8
C=C(C)C(=O)N1c2ccc(OC)cc2CC1C(=O)OCC (centres undefined),> 100,> 100,,> 100,,> 100,> 100,> 100,,,> 100,,> 100,,,,,,,
CC(=O)OC1C/C(C)=C/[C@H](O)CC(C)/C=C/[C@@]2(C)CCC(C(C)(C)O)C12 (some centres undefined),> 100,> 100,> 100,> 100,> 100,> 100,> 100,> 100,,,,,,,,,,,,
O=C(Nc1ccccc1)OCc1nc2c([nH]1)C(=O)C=CC2=O,51.7,6.71,18.3,40,30.9,33.1,29.8,3.94,,,,,,,,,,,,
O=C1c2c(O)cccc2C(C(=O)CCCC(=O)C2c3cccc(O)c3C(=O)c3c(O)cccc32)c2cccc(O)c21,4.64,17.5,2.85,1.13,1.8,2.22,2.48,1.32,,,,,2.02,,,,,,,
